These are literature values, as cited in patent US5837715A, “3-fluoro-4-aminopiperidine derivatives as 5-HT receptor agonists” (Merck Sharp & Dohme Ltd., priority 1997, dated 1998).

Data set [1] has as its system human 5-HT1D.sbsb.α and 5-HT1D.sbsb.β receptor subtypes. As to conditions: cf. WO-A-91/17174, Table 1.
The conditions of data set [2]: humans, therapeutic doses.

Each structure is given as a SMILES string.

Regarding `CNS(=O)(=O)Cc1ccc2[nH]cc(CCN(C)C)c2c1` [sumatriptan], in data set [1], the “discrimination between the human 5-HT1D.sbsb.α and 5-HT1D.sbsb.β receptor subtypes” value is “barely discriminates”. The adverse cardiovascular events entry in data set [2] was “certain adverse cardiovascular events”.
